Molecular target: T1, amyloid deposits in hippocampal brain sections (Homo sapiens, UniProt P05067)
T1 construct: from tissue; host or cells: hippocampal brain sections of a mouse model for Alzheimer's disease
Test: Fluorescence labeling of amyloid deposits in hippocampal brain sections from a mouse model for Alzheimer's disease
Conditions: excitation wavelength 488 nm; fluorescence micrographs
Source text: An excitation wavelength of 488 nm was used to excite the fluorophores. FIG. 13. […] An excitation wavelength of 488 nm was used to excite the fluorophores.

T1 sequence (P05067 672-713 limits assumed): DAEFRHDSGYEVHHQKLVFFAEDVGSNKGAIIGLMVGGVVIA

SMILES | fluorescence labeling of amyloid deposits
COCCOCCOCCNC(=O)/C(C#N)=C/c1ccc2cc(N3CCCCC3)ccc2c1 [Compound 1, 2-cyano-N-(2-(2-(2-methoxyethoxy)ethoxy)ethyl)-3-(6-(piperidin-1-yl)naphthalen-2-yl)acrylamide] | fluorescence labeling of amyloid deposits
COCCOCCOCCNS(=O)(=O)/C(C#N)=C/c1ccc2cc(N3CCCCC3)ccc2c1 [Compound 2, 1-cyano-N-(2-(2-(2-methoxyethoxy)ethoxy)ethyl)-2-(6-(piperidin-1-yl)naphthalen-2-yl)ethenesulfonamide] | fluorescence labeling of amyloid deposits
